These results are taken from patent US5380729A, “12-hetero substituted 6,11-ethano-6,11-dihydrobenzo (b) quinolizinium salts and compositions and method of use thereof” (Sterling Winthrop Inc., priority 1993, dated 1995).

The test system of data set [1] is PCP recognition sites. The data set is described as follows: [3H]TCP Radioreceptor Assay (external screen). In kind it is binding, rat (whole rat forebrain membranes). The following applies: @ 10 μM; rat forebrain membranes; 25° C., 60 minutes. Here is the method:
Representative compounds of the invention were also tested in an external [^3 H]TCP radioreceptor assay using the following protocol:
[^3 H]TCP Radioreceptor Assay (external screen)
A procedure similar to that described above for the [^3 H]TCP radioreceptor assay (internal screen) was utilized except that the whole rat forebrain membranes were incubated at 25° C. for 60 minutes rather than at room temperature for 25 minutes, before termination of the reaction. The results are reported as a percent (%) inhibition of binding at 10 μM.

Data set [2] addresses PCP recognition sites. Kind of data set: [3H]TCP Radioreceptor Assay (internal screen). Particulars: rat whole brain membranes, ~1 nM [3H]TCP, room temperature, 25 min. In kind it is binding, rat (male Sprague-Dawley. Put shortly:
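Rat whole-brain membranes (washed, Tris-HCl pH 7.7), 0.5 mg protein/tube, incubated with ~1 nM [3H]TCP and test compounds 25 min at room temperature; nonspecific binding with 100 μM PCP. Filtration and scintillation counting; Ki from displacement curves, or % inhibition at a single concentration.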

Data set [3] can be described thus: Comparison of separate enantiomers with the racemate (test not specified). Particulars: (-)-enantiomer vs (+)-enantiomer or racemate.
For data set [4], the system named is NMDA-induced neurotoxicity in cultured cortical neurons. Kind of data set: Antagonism of NMDA-induced neurotoxicity in cultured neurons (LDH release). Format: cell-based, mouse (Swiss-Webster). Particulars: 500 μM NMDA, 30 minutes; LDH activity at 24 hours; mouse cortical neurons. Here is the method: Antagonism of NMDA-induced Neurotoxicityin Cultured Neurons
Preparation of Cultured Cortical Neurons
Pregnant, Swiss-Webster mice were obtained from Taconic Farms (Germantown, New York) and sacrificed 16 days post conception. Fetuses were removed and placed in a sterile dish containing Hank's balanced salt solution (HBSS), pH 7.4. Brain cortices were dissected, meninges were removed, the tissue was minced and placed into a solution of HBSS containing 0.25% (w/v) trypsin at 37° C. for 15 minutes. Tissue was then triturated with a sterile pasteur pipet, diluted with minimal essential media (Gibco 330-1430), pH 7.4, supplemented with 10% horse serum, 10% fetal calf serum, 2 mM 1-glutamine, 21 mM d-glucose, 2.2 g/L sodium bicarbonate, 1000 u/ml penicillin, and 1,000 μg/ml streptomycin. Cells were plated onto Falcon primaria 96 well plates at a final density of 50,000 cells/well and incubated at 37° C. in the presence of 5% (v/v) carbon dioxide. After 5 days, plating media was replaced with maintenance media containing minimal essential media (Gibco 330- 1430), pH 7.4, supplemented with 10% horse serum, 10% 1-glutamine, 21 mM d-glucose, 2.2 g/l sodium bicarbonate,1,000 U/ml penicillin, 1,000 μg/ml streptomycin, and 10 μM cytosine arabinoside. On days 7 and 10, media was replaced with maintenance media as above lacking the cytosine arabinoside. Experiments were conducted on day 13.
Neuroprotection Assessment
Day 13 cultured cortical neurons were washed twice with minimal essential media, pH 7.4 and then exposed for 30 minutes to 500 μM N-methyl-D-aspartic acid (NMDA) with or without varying concentrations of test agents. Dizocilpine (MK-801) at a final concentration of 10 μM MK-801 was routinely included as a positive control. MK-801 and test agents were prepared in minimal essential media supplemented with 21 mM d-glucose and 2.2 g/L sodium bicarbonate (MEM). After 30 minutes, media was replaced with MEM alone. Exposure of neurons to test agents was limited to the NMDA treatment period. Twenty-four hours after removal of NMDA, an aliquot of media from each well was removed for assessment of cell injury by determining lactate dehydrogenase (LDH) activity by. the method of Wroblewski and LaDue Proc. Soc. Exp. Biol. Med. 1955, 90, 210-213. The results are expressed as an IC50 (in nM) value (concentration causing 50% inhibition) for the antagonism of NMDA--inducedneurotoxicity.

`CCOC1(OCC)CC2c3cc(C)c(C)cc3C1c1cccc[n+]12.[O-][Cl+3]([O-])([O-])[O-]` (stereo not shown) [63(i), 8,9-Dimethyl-12,12-diethoxy-6,11-ethano-6,11-dihydrobenzo[b]quinolizinium perchlorate]: the “Percent inhibition, [3H]TCP (external screen)” value in the data set with PCP recognition sites [1] is 35%. In addition, the Ki on PCP recognition sites [2] is 2260 nM.
On the same counts, the results for `CCOC1(OCC)CC2c3c(C)cccc3C1c1cccc[n+]12.[O-][Cl+3]([O-])([O-])[O-]` (stereo not shown) [63(f), 7-Methyl-12,12-diethoxy-6,11-ethano-6,11-dihydrobenzo[b]quinolizinium perchlorate] are 34% and 7430 nM.
On the same counts, the results for `CCOC1(OCC)C2c3c(C)ccc(C)c3C(C1C)[n+]1ccccc12.[O-][Cl+3]([O-])([O-])[O-]` (stereo not shown) [63(e), 7,10-Dimethyl-12,12-diethoxy-13-methyl-6,11-ethano-6,11-dihydrobenzo[b]quinolizinium perchlorate] are 65% and 255 nM.
On to `CCOC1(OCC)C2c3ccccc3C([n+]3ccccc32)C1(C)C` (single isomer, unassigned; (-)) [Example 12(c), (-)-12,12-diethoxy-13,13-dimethyl-6,11-ethano-6,11-dihydrobenzo[b]quinolizinium chloride. 1/2-7/4 hydrate], for which, in data set [3], the “potency compared to the (+)-enantiomer (Example 13(c)) or the racemate (Example 2)” value is on record as “more potent” and the “side effects compared to the (+)-enantiomer (Example 13(c)) or the racemate (Example 2)” value is reported as “fewer side effects”. Besides, the inhibitory constant (Ki) at PCP recognition sites [2] (hydrate) stood at 4.03 nM. Also, in data set [4], the half-maximal inhibitory concentration (IC50) turned out to be 26 nM.
